{"source": "paper PMC10830516", "about": "(Current Research in Structural Biology, 2024)", "key": {"[1]": {"test_system": "PMII", "settings": "cited from earlier work"}, "[2]": {"target": "plasmepsin II (PMII) (Plasmodium falciparum, UniProt P46925)", "sequence (P46925 125-453)": "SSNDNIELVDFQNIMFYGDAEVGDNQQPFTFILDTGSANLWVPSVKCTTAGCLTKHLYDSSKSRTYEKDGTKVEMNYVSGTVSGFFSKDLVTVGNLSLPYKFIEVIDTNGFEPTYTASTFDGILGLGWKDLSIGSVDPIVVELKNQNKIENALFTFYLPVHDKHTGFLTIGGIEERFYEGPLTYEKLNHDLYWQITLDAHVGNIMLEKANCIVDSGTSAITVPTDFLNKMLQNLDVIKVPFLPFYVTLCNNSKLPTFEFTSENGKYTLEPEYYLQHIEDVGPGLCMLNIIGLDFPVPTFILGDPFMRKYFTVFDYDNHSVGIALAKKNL", "assay": "Inhibition of PMII hydrolysis of Hb-based fluorogenic peptide substrate", "assay_type": "biochemical, P. falciparum"}, "[3]": {"target": "plasmepsin X (PMX) (Plasmodium falciparum, UniProt Q8IAS0)", "sequence (Q8IAS0 235-573)": "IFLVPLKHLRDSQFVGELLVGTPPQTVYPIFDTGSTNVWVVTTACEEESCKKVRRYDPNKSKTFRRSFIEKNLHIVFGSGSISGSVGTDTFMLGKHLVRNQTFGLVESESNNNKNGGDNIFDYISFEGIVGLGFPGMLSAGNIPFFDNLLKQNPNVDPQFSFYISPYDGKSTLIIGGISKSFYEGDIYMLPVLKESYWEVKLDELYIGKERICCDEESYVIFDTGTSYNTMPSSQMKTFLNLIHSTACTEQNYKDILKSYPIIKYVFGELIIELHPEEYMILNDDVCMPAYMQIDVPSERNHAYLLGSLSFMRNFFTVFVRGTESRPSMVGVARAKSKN", "assay": "Inhibition of PMX hydrolysis of Rh2N fluorogenic peptide substrate", "assay_type": "biochemical, P. falciparum", "settings": "Ki against PMX, mature PMX, pH 5.5, 1 μM Rh2N substrate; Ki by Cheng-Prusoff"}}, "note": "pIC50, pKi: −log10 of the molar value. Square brackets hold non-standard residues; d marks the D form. Peptide text beside a SMILES is read from it. * marks the point of attachment. Sta = CC(C)C[C@H](N)[C@@H](O)CC(=O)O; Isovaleryl = CC(C)CC(=O)*"}
{"smiles": "CCCCCc1ccc(C(=O)N(Cc2ccc(-c3ccc(C(=O)N4CCCCC4)cc3)cc2)C2CCN(Cc3ccccn3)CC2)nc1", "note": "[2IGX]", "values": [{"measurement": "pIC50", "setting": "[1]; achiral inhibitors, ref Boss et al., 2006, Prade et al., 2005", "result": 7.27}]}
{"smiles": "CC(C)(C)NC(=O)[C@@H]1CN(Cc2cccnc2)CCN1C[C@@H](O)C[C@@H](Cc1ccccc1)C(=O)N[C@H]1c2ccccc2C[C@H]1O", "note": "[IDV, Indinavir]", "values": [{"measurement": "pKi", "setting": "[2]", "result": 5.62}]}
{"smiles": "Cc1cccc(C)c1OCC(=O)N[C@@H](Cc1ccccc1)[C@@H](O)C[C@H](Cc1ccccc1)NC(=O)[C@H](C(C)C)N1CCCNC1=O", "note": "[LPV, Lopinavir]", "values": [{"measurement": "pKi", "setting": "[2]", "result": 6.15}, {"measurement": "pKi", "setting": "[3]", "result": 4.85}]}
{"smiles": "Cc1c(O)cccc1C(=O)N[C@@H](CSc1ccccc1)[C@H](O)CN1C[C@H]2CCCC[C@H]2C[C@H]1C(=O)NC(C)(C)C", "note": "[NFV, Nelfinavir]", "values": [{"measurement": "pKi", "setting": "[2]", "result": 5.85}, {"measurement": "pKi", "setting": "[3]", "result": 4.22}]}
{"smiles": "CC(C)(C)NC(=O)[C@@H]1C[C@@H]2CCCC[C@@H]2CN1C[C@@H](O)[C@H](Cc1ccccc1)NC(=O)[C@H](CC(N)=O)NC(=O)c1ccc2ccccc2n1", "note": "[SQV, Saquinavir]", "values": [{"measurement": "pKi", "setting": "[2]", "result": 6.00}, {"measurement": "pKi", "setting": "[3]", "result": 4.36}]}
{"smiles": "CC(C)CC(=O)N[C@H](C(=O)N[C@H](C(=O)N[C@@H](CC(C)C)[C@@H](O)CC(=O)N[C@@H](C)C(=O)N[C@@H](CC(C)C)[C@@H](O)CC(=O)O)C(C)C)C(C)C", "note": "[pepstatin A] (Isovaleryl-VV[Sta]A[Sta]-OH)", "values": [{"measurement": "pKi", "setting": "[1]; PMII complex PDB ID 1XDH, ref Silva et al., 1996", "result": 11.22}]}
